Source: patent US11198710B2, “Transgenic plant having herbicide resistance” (priority 2016, dated 2021)

Legend:
[1] = tested on: wild-type rice plant (Nipponbare); experiment: Sensitivity of wild-type rice (Nipponbare) to VLCFAE-inhibiting herbicides, gellan gum medium; type: in vivo; details: Oryza sativa, 168 h
Method: Whether or not a rice plant comprising the TaQ8GTC0 gene introduced therein has VLCFAE-inhibiting herbicide resistance was determined on the basis of a difference in sensitivity of rice between transformant and wild-type. Accordingly, the sensitivity of the wild-type rice plant (Nipponbare) to VLCFAE-inhibiting herbicides used in the glutathione conjugation activity test was examined as described below.
The growth inhibition test was carried out using a gellan gum medium. Hoagland's mix and 3 g of gellan gum were suspended in 1 liter of distilled water and thoroughly dissolved therein by heating in a microwave. A fraction of the resultant (15 ml) was poured in a tubular bottle before it was cooled. When the herbicide (an acetone solution) was to be incorporated thereinto, the herbicide was simultaneously added at the time of filling of the gellan gum medium into the tubular bottle, followed by thorough mixing (final acetone concentration: 0.1%). Rice hulls were soaked in a 50-fold diluted sodium hypochlorite solution (antiformin) (Wako) for approximately 20 minutes and then thoroughly rinsed with water. Sterilized seeds were soaked in distilled water and allowed to stand at 27° C. for germination (for approximately 2 days). Germinating seeds were transferred with the sprout side up to a gellan gum medium containing herbicide (the tubular bottle). Subsequently, these samples, together with a beaker filled with distilled water, were placed in a transparent case, which was then covered with a clear plastic wrap. These samples were grown at 27° C. under fluorescent light illumination (14 hours of a light period and 10 hours of a dark period) for 1 week, the plants were sampled, and the plant heights were then measured. Inhibition of shoot growth was determined by comparison to control plant grown in the absence of herbicide and the concentration required for 50% inhibition (IC50) was determined by the Probit method.

[2] = tested on: TaQ8GTB9; experiment: Pyroxasulfone metabolizing activity based on fatty acid content in cultured rice cells; type: cell-based, wheat; details: cultured rice cells with TaQ8GTB9 gene; 10^−7M or 10^−6M pyroxasulfone, liquid culture 14 to 17 days
Method: The transgenic cultured rice cells thus prepared were used for liquid culture in the presence of pyroxasulfone. Pyroxasulfone was added to the liquid medium as an acetone solution. The final acetone concentration was 0.1%. When liquid culture was carried out, cultured rice cells transformed with KLB-279 (a plasmid comprising Act1p (rice actin 1 promoter)::sGFP::NOSt incorporated into the MCS of PalSelect R-4) were designated as the control samples. Liquid culture was carried out as described below. […]
Fatty acid was extracted using undecenoic acid (C11:1) as an internal standard. As analytical standards, Supelco FAME mix containing C14:0, C16:0, C16:1, C18:0, C18:1, C18:2, C18:3, C20:0, C22:0, C22:1, and C24:0 and other fatty acid methyl esters (C11:1, C15:0, C20:1, and C26:0) were used, and calibration curves thereof were prepared, followed by quantification. […] Quantitative and qualitative analyses were carried out as methyl esters, although fatty acid methyl esters were converted into fatty acids at the time of quantitative analysis. […]

## Cn1nc(C(F)(F)F)c(CS(=O)(=O)C2=NOC(C)(C)C2)c1OC(F)F [Pyroxasulfone, 3-[5-(difluoromethoxy)-1-methyl-3-(trifluoromethyl)pyrazol-4-ylmethylsulfonyl]-4,5-dihydro-5,5-dimethyl-1,2-oxazole]
[1]; minimal concentration at which growth of wild-type rice is inhibited, read-out: Minimal inhibitory concentration
  minimal effective concentration: 0.075 µM
[1]; shoot growth, 1 week, Probit method, read-out: I50
  IC50: 48 nM
[2]
  pyroxasulfone metabolizing activity (C15:0 and VLCFA contents): no pyroxasulfone metabolizing activity
